This note sets out measurements from ChEMBL document CHEMBL1201862, “PubChem BioAssay data set” (2004).

Data set [1] has as its target T1, Apoptotic protease-activating factor 1 (Homo sapiens, UniProt O14727).
T1 sequence (O14727 whole entry): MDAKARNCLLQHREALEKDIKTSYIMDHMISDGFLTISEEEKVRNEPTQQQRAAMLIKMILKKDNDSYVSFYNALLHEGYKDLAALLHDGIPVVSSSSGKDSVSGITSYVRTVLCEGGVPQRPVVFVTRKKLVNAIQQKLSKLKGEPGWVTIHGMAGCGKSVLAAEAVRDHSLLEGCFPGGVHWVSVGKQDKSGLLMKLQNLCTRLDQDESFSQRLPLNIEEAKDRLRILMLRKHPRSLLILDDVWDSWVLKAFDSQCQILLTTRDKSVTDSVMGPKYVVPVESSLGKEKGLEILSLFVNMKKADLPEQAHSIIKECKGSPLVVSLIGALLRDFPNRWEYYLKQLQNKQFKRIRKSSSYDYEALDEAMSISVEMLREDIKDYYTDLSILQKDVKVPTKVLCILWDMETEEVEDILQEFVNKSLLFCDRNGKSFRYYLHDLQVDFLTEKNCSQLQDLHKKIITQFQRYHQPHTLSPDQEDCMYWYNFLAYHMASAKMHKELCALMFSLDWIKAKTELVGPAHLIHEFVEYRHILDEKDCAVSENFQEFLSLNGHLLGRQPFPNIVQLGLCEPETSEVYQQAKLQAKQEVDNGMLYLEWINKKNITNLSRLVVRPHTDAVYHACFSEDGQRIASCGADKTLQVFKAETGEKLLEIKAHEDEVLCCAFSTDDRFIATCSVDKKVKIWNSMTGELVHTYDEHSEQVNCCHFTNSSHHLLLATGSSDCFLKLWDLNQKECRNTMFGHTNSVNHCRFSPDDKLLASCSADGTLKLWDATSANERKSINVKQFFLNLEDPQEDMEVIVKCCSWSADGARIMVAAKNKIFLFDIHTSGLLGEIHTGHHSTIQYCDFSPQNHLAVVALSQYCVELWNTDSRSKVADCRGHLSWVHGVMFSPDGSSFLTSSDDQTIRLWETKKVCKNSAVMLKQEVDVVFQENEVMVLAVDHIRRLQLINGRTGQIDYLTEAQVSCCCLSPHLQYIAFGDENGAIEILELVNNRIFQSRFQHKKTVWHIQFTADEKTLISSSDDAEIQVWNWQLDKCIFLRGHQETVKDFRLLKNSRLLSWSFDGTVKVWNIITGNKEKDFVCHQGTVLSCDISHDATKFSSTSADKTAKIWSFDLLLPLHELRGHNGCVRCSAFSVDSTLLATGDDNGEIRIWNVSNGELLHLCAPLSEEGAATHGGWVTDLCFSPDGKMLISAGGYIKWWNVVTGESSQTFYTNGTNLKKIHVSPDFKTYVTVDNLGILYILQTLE
The data set is described as follows: activation of Apaf-1 mediated apoptosis – fluorescent, uHTS hits, dose response (AID 588554). It counts as functional.

The target of data set [2] is T2, Mannose-6-phosphate isomerase (Homo sapiens, UniProt P34949).
T2 sequence (P34949 whole entry): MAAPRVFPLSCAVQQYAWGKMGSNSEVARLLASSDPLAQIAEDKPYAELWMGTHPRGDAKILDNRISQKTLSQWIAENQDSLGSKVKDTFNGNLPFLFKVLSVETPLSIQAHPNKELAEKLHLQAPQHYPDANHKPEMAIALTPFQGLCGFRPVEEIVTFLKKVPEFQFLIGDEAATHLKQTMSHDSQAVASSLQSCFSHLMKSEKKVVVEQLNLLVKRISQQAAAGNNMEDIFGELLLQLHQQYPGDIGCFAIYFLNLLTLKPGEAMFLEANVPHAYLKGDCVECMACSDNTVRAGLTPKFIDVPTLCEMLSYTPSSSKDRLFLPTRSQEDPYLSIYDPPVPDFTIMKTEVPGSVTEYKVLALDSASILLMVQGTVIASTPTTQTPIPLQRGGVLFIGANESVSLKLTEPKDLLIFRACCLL
The data set is described as follows: human PMI inhibitors, high substrate, primary screen, biochemical, fluorescence intensity, high mannose 6-phosphate (AID 1220).

In data set [3] the target is Lysine-specific demethylase 4A (Homo sapiens, UniProt O75164). The data set is described as follows: JMJD2A histone demethylase inhibitors, dose response, selectivity assay for GASC-1 inhibitor project, biochemical, DELFIA europium, cherry-picked samples (AID 488840).
Lysine-specific demethylase 4A, sequence (O75164 whole entry): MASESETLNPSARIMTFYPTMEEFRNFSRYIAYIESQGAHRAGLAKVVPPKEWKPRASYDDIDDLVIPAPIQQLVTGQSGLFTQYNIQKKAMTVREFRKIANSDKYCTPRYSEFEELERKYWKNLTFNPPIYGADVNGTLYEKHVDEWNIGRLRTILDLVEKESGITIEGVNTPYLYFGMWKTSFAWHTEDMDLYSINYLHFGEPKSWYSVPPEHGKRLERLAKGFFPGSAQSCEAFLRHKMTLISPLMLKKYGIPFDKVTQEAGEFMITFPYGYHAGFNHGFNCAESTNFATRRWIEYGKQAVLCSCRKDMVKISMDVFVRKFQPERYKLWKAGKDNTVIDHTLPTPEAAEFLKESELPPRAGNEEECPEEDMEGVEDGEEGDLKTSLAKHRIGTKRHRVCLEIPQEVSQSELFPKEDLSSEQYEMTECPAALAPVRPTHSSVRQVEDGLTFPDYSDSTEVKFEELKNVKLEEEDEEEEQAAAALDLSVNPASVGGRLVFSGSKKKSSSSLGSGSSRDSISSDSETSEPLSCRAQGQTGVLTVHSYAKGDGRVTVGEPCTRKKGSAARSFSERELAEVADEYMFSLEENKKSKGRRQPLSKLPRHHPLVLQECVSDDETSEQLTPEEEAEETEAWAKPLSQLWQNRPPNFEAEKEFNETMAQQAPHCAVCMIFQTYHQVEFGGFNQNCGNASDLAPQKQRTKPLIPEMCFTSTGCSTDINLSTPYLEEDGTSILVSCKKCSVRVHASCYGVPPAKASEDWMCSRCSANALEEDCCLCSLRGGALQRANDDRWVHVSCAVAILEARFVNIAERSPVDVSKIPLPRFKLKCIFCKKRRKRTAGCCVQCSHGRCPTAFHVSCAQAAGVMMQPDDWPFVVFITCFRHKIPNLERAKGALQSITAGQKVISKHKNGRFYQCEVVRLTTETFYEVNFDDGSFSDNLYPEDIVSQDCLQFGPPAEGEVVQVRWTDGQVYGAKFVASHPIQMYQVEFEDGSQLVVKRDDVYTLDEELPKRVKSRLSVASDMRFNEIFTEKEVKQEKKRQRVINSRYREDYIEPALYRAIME
For data set [4], the target named is Lysine-specific demethylase 4C (Homo sapiens, UniProt Q9H3R0). Briefly: GASC-1 (JMJD2C) histone demethylase inhibitors, dose response, biochemical, DELFIA europium, cherry-picked samples (AID 488835). It counts as functional.
Lysine-specific demethylase 4C, sequence (Q9H3R0 whole entry): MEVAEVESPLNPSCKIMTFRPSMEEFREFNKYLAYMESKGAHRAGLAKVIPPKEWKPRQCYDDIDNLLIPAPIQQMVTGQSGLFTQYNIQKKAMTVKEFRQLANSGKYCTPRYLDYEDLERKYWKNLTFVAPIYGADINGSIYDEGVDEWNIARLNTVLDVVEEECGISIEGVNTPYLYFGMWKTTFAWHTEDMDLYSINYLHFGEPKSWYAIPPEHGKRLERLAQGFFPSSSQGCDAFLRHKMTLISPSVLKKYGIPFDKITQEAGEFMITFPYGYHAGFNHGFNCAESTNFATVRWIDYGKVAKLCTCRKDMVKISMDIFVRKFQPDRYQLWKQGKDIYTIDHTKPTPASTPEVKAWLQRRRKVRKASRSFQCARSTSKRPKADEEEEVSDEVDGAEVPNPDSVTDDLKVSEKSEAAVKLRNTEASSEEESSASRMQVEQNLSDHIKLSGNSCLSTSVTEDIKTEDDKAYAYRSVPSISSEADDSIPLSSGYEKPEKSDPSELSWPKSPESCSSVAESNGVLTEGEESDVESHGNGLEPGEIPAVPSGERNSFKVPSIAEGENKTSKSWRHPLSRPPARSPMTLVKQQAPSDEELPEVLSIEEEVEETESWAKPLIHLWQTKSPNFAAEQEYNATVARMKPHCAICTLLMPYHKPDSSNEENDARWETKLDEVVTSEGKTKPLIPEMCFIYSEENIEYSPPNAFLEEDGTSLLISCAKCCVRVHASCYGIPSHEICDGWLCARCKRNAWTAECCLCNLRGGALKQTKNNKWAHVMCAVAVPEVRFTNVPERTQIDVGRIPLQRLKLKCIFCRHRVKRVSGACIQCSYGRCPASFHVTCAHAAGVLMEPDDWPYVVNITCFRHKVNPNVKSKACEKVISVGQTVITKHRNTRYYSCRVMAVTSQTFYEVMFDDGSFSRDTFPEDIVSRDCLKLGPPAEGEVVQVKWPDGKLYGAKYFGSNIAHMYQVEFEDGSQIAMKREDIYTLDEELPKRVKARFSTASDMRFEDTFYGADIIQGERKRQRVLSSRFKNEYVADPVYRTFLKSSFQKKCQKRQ
In data set [5] the target is Intestinal-type alkaline phosphatase (Mus musculus, UniProt P24822). Briefly: PubChem AID 488875. It is filed as functional.
Intestinal-type alkaline phosphatase (Mus musculus, UniProt P24822), sequence (P24822 whole entry): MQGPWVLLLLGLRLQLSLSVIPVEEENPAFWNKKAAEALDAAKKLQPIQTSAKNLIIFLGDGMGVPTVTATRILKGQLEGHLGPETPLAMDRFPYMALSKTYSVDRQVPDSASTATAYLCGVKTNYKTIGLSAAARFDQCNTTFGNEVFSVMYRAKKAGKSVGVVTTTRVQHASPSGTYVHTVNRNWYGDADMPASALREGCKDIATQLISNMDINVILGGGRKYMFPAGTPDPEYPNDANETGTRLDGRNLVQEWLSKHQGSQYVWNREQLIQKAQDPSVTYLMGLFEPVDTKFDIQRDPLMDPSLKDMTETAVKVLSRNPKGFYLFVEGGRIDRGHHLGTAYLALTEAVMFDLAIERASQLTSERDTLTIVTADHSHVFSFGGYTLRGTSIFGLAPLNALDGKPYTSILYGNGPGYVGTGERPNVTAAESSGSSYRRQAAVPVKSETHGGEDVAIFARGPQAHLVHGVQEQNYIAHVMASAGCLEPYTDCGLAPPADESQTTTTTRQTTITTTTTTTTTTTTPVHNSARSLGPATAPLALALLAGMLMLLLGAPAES
For data set [6], the target named is T3, Intestinal-type alkaline phosphatase (Homo sapiens, UniProt P09923). Briefly: human intestinal alkaline phosphatase activators, dose response, biochemical, luminescence, uHTS hits (AID 463120). It is filed as functional.
T3 sequence (P09923 whole entry): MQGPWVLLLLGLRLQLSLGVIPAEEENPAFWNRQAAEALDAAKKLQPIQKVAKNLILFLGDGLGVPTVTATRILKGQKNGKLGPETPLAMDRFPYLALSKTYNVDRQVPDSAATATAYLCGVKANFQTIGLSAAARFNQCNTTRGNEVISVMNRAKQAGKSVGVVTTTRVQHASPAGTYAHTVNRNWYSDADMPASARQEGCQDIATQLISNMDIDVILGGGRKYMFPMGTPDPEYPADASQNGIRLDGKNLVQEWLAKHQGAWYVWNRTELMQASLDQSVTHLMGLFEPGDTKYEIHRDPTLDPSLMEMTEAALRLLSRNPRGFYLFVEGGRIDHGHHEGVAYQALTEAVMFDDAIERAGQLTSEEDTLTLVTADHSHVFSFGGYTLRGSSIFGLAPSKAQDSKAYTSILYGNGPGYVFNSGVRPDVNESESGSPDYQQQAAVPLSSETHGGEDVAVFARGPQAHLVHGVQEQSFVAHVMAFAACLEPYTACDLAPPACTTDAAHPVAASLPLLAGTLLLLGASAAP
The target in data set [7] is T3, Intestinal-type alkaline phosphatase. The data set is described as follows: human IAP activators, dose response, biochemical, luminescent, uHTS hits, set 2 (AID 488817).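 Also: potency of activators that raise enzyme activity.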 It counts as functional.
In data set [8] the target is T4, Alkaline phosphatase, tissue-nonspecific isozyme (Homo sapiens, UniProt P05186).
T4 sequence (P05186 whole entry): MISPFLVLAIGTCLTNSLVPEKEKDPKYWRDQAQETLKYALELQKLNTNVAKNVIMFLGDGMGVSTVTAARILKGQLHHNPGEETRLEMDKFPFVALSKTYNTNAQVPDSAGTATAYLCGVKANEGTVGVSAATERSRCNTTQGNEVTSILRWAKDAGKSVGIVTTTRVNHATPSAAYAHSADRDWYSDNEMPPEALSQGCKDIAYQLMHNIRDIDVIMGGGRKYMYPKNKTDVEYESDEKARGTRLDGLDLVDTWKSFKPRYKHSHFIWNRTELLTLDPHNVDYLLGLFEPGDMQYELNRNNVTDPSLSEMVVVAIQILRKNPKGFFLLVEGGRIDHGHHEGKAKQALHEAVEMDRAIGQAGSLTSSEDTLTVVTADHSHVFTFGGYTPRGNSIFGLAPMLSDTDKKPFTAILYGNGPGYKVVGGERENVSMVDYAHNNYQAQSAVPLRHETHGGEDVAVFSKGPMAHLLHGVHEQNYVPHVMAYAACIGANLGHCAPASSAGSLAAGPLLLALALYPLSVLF
Briefly: TNAP enzyme activators, dose response, selectivity assay for human IAP activator project, biochemical, TNAP isozyme, human IAP uHTS hits (AID 488886).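 Also: potency of compounds raising TNAP activity as a selectivity check on IAP activators.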 It is filed as functional.

Data set [9] has as its target T5, Tyrosine-protein phosphatase non-receptor type 7 (Homo sapiens, UniProt P35236).
T5 sequence (P35236 whole entry): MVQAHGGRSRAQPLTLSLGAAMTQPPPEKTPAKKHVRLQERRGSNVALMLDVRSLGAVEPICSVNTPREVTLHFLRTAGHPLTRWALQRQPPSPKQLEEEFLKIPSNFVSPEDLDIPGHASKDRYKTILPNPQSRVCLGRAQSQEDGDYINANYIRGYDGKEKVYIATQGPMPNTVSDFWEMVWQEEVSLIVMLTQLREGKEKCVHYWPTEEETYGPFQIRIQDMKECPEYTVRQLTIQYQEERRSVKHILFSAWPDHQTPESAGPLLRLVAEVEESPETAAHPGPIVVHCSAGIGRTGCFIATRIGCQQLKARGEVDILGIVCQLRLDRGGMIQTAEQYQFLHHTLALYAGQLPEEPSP
It is filed as functional.

Data set [10] addresses Glyceraldehyde-3-phosphate dehydrogenase (Homo sapiens, UniProt P04406).
In data set [11] the target is T6, Dual specificity protein phosphatase 6 (Rattus norvegicus, UniProt Q64346).
T6 sequence (Q64346 whole entry): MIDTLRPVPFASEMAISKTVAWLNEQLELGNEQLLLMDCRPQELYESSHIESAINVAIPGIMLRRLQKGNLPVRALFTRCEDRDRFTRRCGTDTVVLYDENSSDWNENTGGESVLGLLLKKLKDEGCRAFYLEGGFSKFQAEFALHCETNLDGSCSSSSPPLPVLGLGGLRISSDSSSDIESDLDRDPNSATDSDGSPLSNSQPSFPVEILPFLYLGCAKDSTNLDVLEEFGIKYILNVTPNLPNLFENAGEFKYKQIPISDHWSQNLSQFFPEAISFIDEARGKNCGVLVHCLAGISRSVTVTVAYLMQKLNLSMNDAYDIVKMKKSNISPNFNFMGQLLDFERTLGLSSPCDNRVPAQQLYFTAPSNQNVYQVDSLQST

The target of data set [12] is T6, Dual specificity protein phosphatase 6. It counts as functional.
Another data set concerns the target Cytochrome P450 2C19 (Homo sapiens, UniProt P33261). The data set is described as follows: Cytochrome panel assay with activity outcomes. Panel member name: p450-cyp2c19 Compounds with AC50 equal or less than 10 uM are considered active. It is filed as functional.
In another data set the target is Cytochrome P450 2D6 (Homo sapiens, UniProt P10635).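 Also: CYP2D6 member of a cytochrome P450 panel assay.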
Cytochrome P450 2D6, sequence (P10635 whole entry): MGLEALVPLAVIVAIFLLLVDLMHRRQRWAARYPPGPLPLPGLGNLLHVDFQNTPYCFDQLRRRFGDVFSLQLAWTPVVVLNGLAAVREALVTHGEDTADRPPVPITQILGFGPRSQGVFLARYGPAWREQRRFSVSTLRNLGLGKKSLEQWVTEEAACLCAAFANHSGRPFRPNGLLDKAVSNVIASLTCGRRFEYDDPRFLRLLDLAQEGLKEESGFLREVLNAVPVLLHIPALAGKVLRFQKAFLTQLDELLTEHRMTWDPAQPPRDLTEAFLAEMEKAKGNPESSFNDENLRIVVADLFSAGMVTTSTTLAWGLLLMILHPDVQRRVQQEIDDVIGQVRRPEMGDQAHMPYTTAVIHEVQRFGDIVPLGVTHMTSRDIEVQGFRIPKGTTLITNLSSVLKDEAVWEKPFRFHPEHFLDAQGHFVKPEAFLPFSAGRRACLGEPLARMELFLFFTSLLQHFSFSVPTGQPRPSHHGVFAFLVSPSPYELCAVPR
Another data set addresses T7, Cytochrome P450 1A2 (Homo sapiens, UniProt P05177).
T7 sequence (P05177 whole entry): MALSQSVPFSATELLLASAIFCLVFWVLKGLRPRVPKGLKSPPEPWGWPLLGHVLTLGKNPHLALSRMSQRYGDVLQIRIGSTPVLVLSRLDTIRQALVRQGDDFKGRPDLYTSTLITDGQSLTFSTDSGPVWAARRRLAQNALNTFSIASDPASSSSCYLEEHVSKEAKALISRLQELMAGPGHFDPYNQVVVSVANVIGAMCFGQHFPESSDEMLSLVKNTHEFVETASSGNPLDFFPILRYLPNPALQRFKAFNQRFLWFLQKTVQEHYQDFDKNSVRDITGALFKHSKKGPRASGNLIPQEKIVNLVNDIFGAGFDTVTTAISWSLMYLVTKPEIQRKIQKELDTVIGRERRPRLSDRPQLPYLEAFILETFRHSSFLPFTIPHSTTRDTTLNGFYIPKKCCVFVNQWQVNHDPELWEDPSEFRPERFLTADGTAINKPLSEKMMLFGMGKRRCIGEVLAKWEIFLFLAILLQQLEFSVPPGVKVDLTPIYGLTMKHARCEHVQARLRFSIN

The next data set deals with Cytochrome P450 2C9 (Homo sapiens, UniProt P11712).
Cytochrome P450 2C9, sequence (P11712 whole entry): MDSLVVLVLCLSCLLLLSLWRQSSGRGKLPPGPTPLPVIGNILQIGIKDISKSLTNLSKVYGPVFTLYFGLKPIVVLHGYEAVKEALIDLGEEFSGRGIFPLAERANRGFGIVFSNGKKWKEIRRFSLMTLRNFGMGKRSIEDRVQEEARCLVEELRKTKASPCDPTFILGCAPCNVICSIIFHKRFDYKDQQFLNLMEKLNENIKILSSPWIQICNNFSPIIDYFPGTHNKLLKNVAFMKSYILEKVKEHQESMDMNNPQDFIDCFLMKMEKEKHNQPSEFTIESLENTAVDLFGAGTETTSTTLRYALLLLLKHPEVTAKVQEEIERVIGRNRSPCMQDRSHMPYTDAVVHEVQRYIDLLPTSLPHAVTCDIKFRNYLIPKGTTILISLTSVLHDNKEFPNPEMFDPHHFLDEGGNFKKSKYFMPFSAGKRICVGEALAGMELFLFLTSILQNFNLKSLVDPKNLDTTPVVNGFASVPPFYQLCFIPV
Data set [13] can be described thus: Luminescence Cell-Based Dose Retest to Confirm Inhibitors of Cancer Stem Cells. [Related pubchem assays (depositor defined):AID2717, AID2721]. It counts as functional. The settings on record: Homo sapiens.
A short description of data set [14]: cytotoxicity in HMLE control line with eGFP shRNA, dose response, counter-screen for HMLE_sh_ECad selective toxicity project, cell-based, HMLE_sh_eGFP, luminescence (AID 463074).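 Also: HMLE human mammary epithelial cells expressing control shRNA against eGFP.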 It is filed as functional, Homo sapiens.

Activity calls are given as the source filed them. Bounds are passed on as bounds.

Cytochrome P450 2C19, sequence (P33261 whole entry): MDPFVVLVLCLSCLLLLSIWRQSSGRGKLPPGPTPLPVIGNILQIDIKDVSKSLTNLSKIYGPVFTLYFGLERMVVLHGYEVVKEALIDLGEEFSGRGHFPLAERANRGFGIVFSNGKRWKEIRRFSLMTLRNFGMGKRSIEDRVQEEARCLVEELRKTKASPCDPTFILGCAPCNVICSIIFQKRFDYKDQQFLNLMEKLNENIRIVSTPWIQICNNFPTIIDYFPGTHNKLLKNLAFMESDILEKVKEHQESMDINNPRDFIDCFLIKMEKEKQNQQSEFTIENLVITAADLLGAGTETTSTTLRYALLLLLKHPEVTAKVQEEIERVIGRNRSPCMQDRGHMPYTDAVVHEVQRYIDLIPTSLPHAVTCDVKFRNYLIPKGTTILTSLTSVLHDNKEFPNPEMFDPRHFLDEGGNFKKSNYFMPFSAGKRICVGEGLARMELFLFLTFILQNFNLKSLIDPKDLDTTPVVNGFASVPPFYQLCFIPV
Glyceraldehyde-3-phosphate dehydrogenase, sequence (P04406 whole entry): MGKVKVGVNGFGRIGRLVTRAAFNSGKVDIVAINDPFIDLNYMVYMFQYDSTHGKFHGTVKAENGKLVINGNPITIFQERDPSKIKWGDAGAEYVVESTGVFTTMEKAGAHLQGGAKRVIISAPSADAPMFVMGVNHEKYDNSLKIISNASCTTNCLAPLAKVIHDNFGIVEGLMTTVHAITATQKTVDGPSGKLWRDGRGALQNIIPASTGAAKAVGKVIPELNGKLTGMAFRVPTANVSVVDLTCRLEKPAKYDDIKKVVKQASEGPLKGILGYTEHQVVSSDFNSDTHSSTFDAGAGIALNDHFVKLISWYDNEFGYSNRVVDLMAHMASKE

Consider `Cc1cc(C)n(CC(C)C(=O)O)n1` (stereo not drawn), for which, in data set [1], the half-maximal effective concentration (EC50) is 10.9 µM (active).
`Cc1ccc2[nH]c(=O)c(C=C3C(=O)NC(=O)NC3=O)cc2c1`: the IC50 in data set [2] is > 50 µM (not active). For the same molecule, the AC50 in [3] is 26.9 µM (active); in data set [4], 46.5 µM (active).
Consider `CC(C)(C)NC(=O)C(=O)NNC(=O)COc1ccccc1`, for which the EC50 in data set [5] was > 100 µM (inactive); in data set [6], 28 µM (active); in data set [7] it was 28.4 µM (active); in data set [8], 36.4 µM (active).
In the case of `O=c1nc(NCCc2ccccc2)[nH]c(=O)n1-c1ccccc1`, the IC50 in [9] is > 100 µM (not active); in data set [10] it was > 100 µM (not active); in data set [11] it was > 100 µM (inactive); in [12] it was > 100 µM (inactive).
Turning to `O=C(c1cc(C(F)(F)F)cc(C(F)(F)F)c1)N1CCC2(CC1)CN(c1ncccn1)C2`, the half-maximal activity concentration (AC50) result at Cytochrome P450 2C19, on Cytochrome P450 2D6, on Cytochrome P450 1A2 and at Cytochrome P450 2C9 was “inconclusive” throughout.
Regarding `O=C(CCS(=O)(=O)c1ccccc1)Nc1nc(-c2ccc(F)cc2)cs1`, the results for the AC50 in data set [13] and in data set [14] were 10.4 µM (active) and 143 µM (active), respectively.

What is called EC50 is the midpoint of the concentration-response curve. The term IC50 denotes the concentration at which inhibition is half-maximal. One may read the AC50 as the concentration at which the activity in the assay is half-maximal.
